We go through 3 molecules from patent US20230052017A1, “New compounds for treatment of diseases related to DUX4 expression” (Facio Intellectual Property B.V., priority 2019, published 2023).

In the experiment the test system is DUX4. In words: DUX4 repression assay in primary FSHD cells (protocol of Example 2 of WO2019/115711). To be noted: incubated 72 hours, reference compounds. It counts as cell-based, human. An excerpt:
Following the central role of DUX4 in the consensus disease hypothesis for FSHD, a therapeutic approach with a disease-modifying potential is expected to rely on the inhibition of DUX4. The inventors have identified the compounds according to the invention as being able to achieve DUX4 repression in muscle cells. This invention has been made using primary FSHD patient-derived muscle cells. Because of the primate-specificity of the FSHD locus and questionable relevance of recombinant, immortalized, or tumorigenic cell or animal models to study endogenous DUX4 regulatory mechanisms, primary patient-derived muscle cells are the most relevant disease model. Assays based on immortalized cells bear the risk of altered epigenomes, thereby limiting their relevance in studying the endogenous regulation of DUX4 expression. Particularly the subtelomeric location of D4Z4 and the importance of the D4Z4 epigenome in the stability of DUX4 repression (Stadler et al., 2013, DOI: 10.1038/nsmb.2571) underscore the necessity of using primary muscle cells to discover physiologically relevant drug targets that regulate the expression of DUX4.
The DUX4 repression of compounds of general formula (I) was assayed following a known protocol (the protocol of Example 2 of WO2019/115711). Several compounds were incubated with primary FSHD cells for 72 hours. Results are shown in Table 4, showing DUX4 Count % inhibition.
With `O=C(Cn1cnc(-c2ccc(F)cc2)c1-c1cccnc1)N1CCNCC1` [Compound 108, 2-[4-(4-fluorophenyl)-5-(pyridin-3-yl)-1H-imidazol-1-yl]-1-(piperazin-1-yl)ethan-1-one], the “DUX4 count % inhibition” value came to 6.6%. For `CN1CCN(C(=O)Cc2nn(C(C)(C)C)c(-c3ccc(F)cc3)c2-c2ccncc2)CC1` [Compound 106, 2-[1-tert-butyl-5-(4-fluorophenyl)-4-(pyridin-4-yl)-1H-pyrazol-3-yl]-1-(4-methylpiperazin-1-yl)ethan-1-one], the “DUX4 count % inhibition” value turned out to be 17.3%.

For `CN1CCN(C(=O)Cn2cnc(-c3ccc(F)cc3)c2-c2cccnc2)CC1` [Compound 107, 2-[4-(4-fluorophenyl)-5-(pyridin-3-yl)-1H-imidazol-1-yl]-1-(4-methylpiperazin-1-yl)ethan-1-one], the “DUX4 count % inhibition” value came out at 10.7%.
